Tests used:
Assay in all cases: relative viability (nuclei count vs DMSO), 5 days (fraction); higher = more cells survive
201T = test system: 201T
In short: (§1)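 Nuclei were stained with Hoechst during a one-step fixation (final 0.05% Triton X-100, 1% formaldehyde, 1 ug/ml Hoechst) carried out 5 days after dosing, then counted on 4× images. The cells, lung cancer lines in 1536-well plates, had been dosed by pin tool the day after seeding with one drug alone or a fixed anchor-drug dose plus five library-drug doses (not always all listed) in √10 steps. Relative viability is the nuclei count in treated wells divided by that in vehicle wells, and each value is the median of duplicate plates.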

BEN = test system: BEN
In short: as §1

CAL-12T = test system: CAL-12T
In short: as §1

HCC-44 = test system: HCC-44
In short: as §1

HCC-827 = test system: HCC-827
In short: as §1

HOP-62 = test system: HOP-62
In short: as §1

LCLC-103H = test system: LCLC-103H
In short: as §1

LCLC-97TM1 = test system: LCLC-97TM1
In short: as §1

LXF-289 = test system: LXF-289
In short: as §1

NCI-H1355 = test system: NCI-H1355
In short: as §1

NCI-H1395 = test system: NCI-H1395
In short: as §1

NCI-H1437 = test system: NCI-H1437
In short: as §1

NCI-H1650 = test system: NCI-H1650
In short: as §1

NCI-H1793 = test system: NCI-H1793
In short: as §1

NCI-H2023 = test system: NCI-H2023
In short: as §1

NCI-H2087 = test system: NCI-H2087
In short: as §1

NCI-H2228 = test system: NCI-H2228
In short: as §1

NCI-H2405 = test system: NCI-H2405
In short: as §1

NCI-H3122 = test system: NCI-H3122
In short: as §1

NCI-H322M = test system: NCI-H322M
In short: as §1

NCI-H647 = test system: NCI-H647
In short: as §1

RERF-LC-KJ = test system: RERF-LC-KJ
In short: as §1

SK-LU-1 = test system: SK-LU-1
In short: as §1

## C[C@@H]1CN(CC(=O)Nc2ccc3c(c2)Cc2cccc(-c4cc(=O)cc(N5CCOCC5)o4)c2S3)C[C@H](C)O1 + Nc1nc2[nH]cc(CCc3ccc(C(=O)N[C@@H](CCC(=O)O)C(=O)O)cc3)c2c(=O)[nH]1 [Pemetrexed] (partner 0.2 µM)
201T; first compound 0.04 µM
  relative viability: 0.329
201T; first compound 0.1265 µM
  relative viability: 0.319
201T; first compound 0.4 µM
  relative viability: 0.295
201T; first compound 4 µM
  relative viability: 0.314
BEN; first compound 0.04 µM
  relative viability: 0.633
BEN; first compound 0.1265 µM
  relative viability: 0.713
BEN; first compound 0.4 µM
  relative viability: 0.749
BEN; first compound 4 µM
  relative viability: 0.648
CAL-12T; first compound 0.04 µM
  relative viability: 1.27
CAL-12T; first compound 0.1265 µM
  relative viability: 1.21
CAL-12T; first compound 0.4 µM
  relative viability: 1.08
CAL-12T; first compound 4 µM
  relative viability: 0.428
HCC-44; first compound 0.04 µM
  relative viability: 0.639
HCC-44; first compound 0.1265 µM
  relative viability: 0.644
HCC-44; first compound 0.4 µM
  relative viability: 0.639
HCC-44; first compound 4 µM
  relative viability: 0.63
HCC-827; first compound 0.04 µM
  relative viability: 0.253
HCC-827; first compound 0.1265 µM
  relative viability: 0.247
HCC-827; first compound 0.4 µM
  relative viability: 0.247
HCC-827; first compound 4 µM
  relative viability: 0.3
HOP-62; first compound 0.04 µM
  relative viability: 0.318
HOP-62; first compound 0.1265 µM
  relative viability: 0.33
HOP-62; first compound 0.4 µM
  relative viability: 0.317
HOP-62; first compound 4 µM
  relative viability: 0.455
LCLC-103H; first compound 0.04 µM
  relative viability: 0.495
LCLC-103H; first compound 0.1265 µM
  relative viability: 0.464
LCLC-103H; first compound 0.4 µM
  relative viability: 0.458
LCLC-103H; first compound 4 µM
  relative viability: 0.507
LCLC-97TM1; first compound 0.1265 µM
  relative viability: 0.192
LCLC-97TM1; first compound 0.4 µM
  relative viability: 0.183
LCLC-97TM1; first compound 4 µM
  relative viability: 0.17
LXF-289; first compound 0.04 µM
  relative viability: 0.884
LXF-289; first compound 0.1265 µM
  relative viability: 0.99
LXF-289; first compound 0.4 µM
  relative viability: 0.89
LXF-289; first compound 4 µM
  relative viability: 0.818
NCI-H1355; first compound 0.04 µM
  relative viability: 0.941
NCI-H1355; first compound 0.1265 µM
  relative viability: 1.04
NCI-H1355; first compound 0.4 µM
  relative viability: 0.959
NCI-H1355; first compound 4 µM
  relative viability: 0.997
NCI-H1395; first compound 0.1265 µM
  relative viability: 0.833
NCI-H1395; first compound 0.4 µM
  relative viability: 0.749
NCI-H1395; first compound 4 µM
  relative viability: 1.08
NCI-H1437; first compound 0.04 µM
  relative viability: 0.402
NCI-H1437; first compound 0.1265 µM
  relative viability: 0.338
NCI-H1437; first compound 0.4 µM
  relative viability: 0.336
NCI-H1437; first compound 4 µM
  relative viability: 0.335
NCI-H1650; first compound 0.04 µM
  relative viability: 0.367
NCI-H1650; first compound 0.1265 µM
  relative viability: 0.353
NCI-H1650; first compound 0.4 µM
  relative viability: 0.408
NCI-H1650; first compound 4 µM
  relative viability: 0.329
NCI-H1793; first compound 0.04 µM
  relative viability: 0.98
NCI-H1793; first compound 0.1265 µM
  relative viability: 0.752
NCI-H1793; first compound 0.4 µM
  relative viability: 0.855
NCI-H1793; first compound 4 µM
  relative viability: 0.485
NCI-H2023; first compound 0.04 µM
  relative viability: 0.263
NCI-H2023; first compound 0.1265 µM
  relative viability: 0.213
NCI-H2023; first compound 0.4 µM
  relative viability: 0.203
NCI-H2023; first compound 4 µM
  relative viability: 0.199
NCI-H2087; first compound 0.04 µM
  relative viability: 0.676
NCI-H2087; first compound 0.1265 µM
  relative viability: 0.668
NCI-H2087; first compound 0.4 µM
  relative viability: 0.677
NCI-H2087; first compound 4 µM
  relative viability: 0.621
NCI-H2228; first compound 0.04 µM
  relative viability: 0.333
NCI-H2228; first compound 0.1265 µM
  relative viability: 0.351
NCI-H2228; first compound 0.4 µM
  relative viability: 0.34
NCI-H2228; first compound 4 µM
  relative viability: 0.226
NCI-H2405; first compound 0.04 µM
  relative viability: 1.11
NCI-H2405; first compound 0.1265 µM
  relative viability: 1.01
NCI-H2405; first compound 0.4 µM
  relative viability: 1.04
NCI-H2405; first compound 4 µM
  relative viability: 1.03
NCI-H3122; first compound 0.04 µM
  relative viability: 0.192
NCI-H3122; first compound 0.1265 µM
  relative viability: 0.193
NCI-H3122; first compound 0.4 µM
  relative viability: 0.192
NCI-H3122; first compound 4 µM
  relative viability: 0.183
NCI-H322M; first compound 0.04 µM
  relative viability: 0.597
NCI-H322M; first compound 0.1265 µM
  relative viability: 0.607
NCI-H322M; first compound 0.4 µM
  relative viability: 0.649
NCI-H322M; first compound 4 µM
  relative viability: 0.657
NCI-H647; first compound 0.04 µM
  relative viability: 0.19
NCI-H647; first compound 0.1265 µM
  relative viability: 0.154
NCI-H647; first compound 0.4 µM
  relative viability: 0.102
NCI-H647; first compound 4 µM
  relative viability: 0.155
RERF-LC-KJ; first compound 0.04 µM
  relative viability: 0.521
RERF-LC-KJ; first compound 0.1265 µM
  relative viability: 0.465
RERF-LC-KJ; first compound 0.4 µM
  relative viability: 0.461
RERF-LC-KJ; first compound 4 µM
  relative viability: 0.443
SK-LU-1; first compound 0.04 µM
  relative viability: 1.08
SK-LU-1; first compound 0.1265 µM
  relative viability: 0.933
SK-LU-1; first compound 0.4 µM
  relative viability: 1.01
SK-LU-1; first compound 4 µM
  relative viability: 0.756
